Assay results from patent publication US20230148005A1, “MACROCYCLIC COMPOUNDS AND USES THEREOF” (THESEUS PHARMACEUTICALS, INC., priority 2020, published 2023).

Legend:
EGFR^L858R/T790M/C^797S = EGFR^L858R/T790M/C^797S (Homo sapiens, UniProt P00533, C797S/L858R/T790M); experiment: in vitro kinase assay (HTRF KinEASE-TK kit), LTC; assay type: biochemical; settings: kinase inhibition
Excerpt: (§1) Assays using an in vitro kinase assay kit (HTRF KinEASE-TK kit) can be used to study the inhibitory activity of compounds described herein with respect to EGFR mutants such as EGFR^L858R, EGFR^L58R/T790M, and EGFR^L858R/T790M/C^797S.

EGFR^L58R/T790M = EGFR^L58R/T790M (Homo sapiens, UniProt P00533, L858R/T790M); experiment: in vitro kinase assay (HTRF KinEASE-TK kit), LT; assay type: biochemical; settings: kinase inhibition
Excerpt: as §1

[1] = biological target: Ba/F3 EGFR-Del19/T790M/C797S (Homo sapiens, UniProt P00533, T790M/C797S, cells depend on it, form not given); experiment: Ba/F3 viability assay (CellTiter-Glo), DTC; assay type: cell-based; settings: anti-proliferation, read-out: BaF3 DTC IC50
Excerpt: (§2) Inhibition of cell proliferation can be studied using Ba/F3 viability assays, including the Promega CellTiter-Glo cell viability assay. This assay can be used to study the effect of compounds described herein in the following assays: (1) Ba/F3 Parental; (2) Ba/F3 EGFR-Del19/T790M; (3); Ba/F3 EGFR-Del19/C797S; and (4) Ba/F3 EGFR-Del19/T790M/C797S.

Ba/F3 Parental = experiment: Ba/F3 viability assay (CellTiter-Glo), parental; assay type: cell-based; settings: Mus musculus, BaF3, anti-proliferation
Excerpt: as §2

Ba/F3 EGFR-Del19/C797S = Ba/F3 EGFR-Del19/C797S (Homo sapiens, UniProt P00533, C797S, cells depend on it, form not given); experiment: Ba/F3 viability assay (CellTiter-Glo), DC; assay type: cell-based; settings: anti-proliferation, read-out: BaF3 DC IC50
Excerpt: as §2

EGFR^L858R = EGFR^L858R (Homo sapiens, UniProt P00533, L858R); experiment: in vitro kinase assay (HTRF KinEASE-TK kit), L; assay type: biochemical; settings: kinase inhibition
Excerpt: as §1

Ba/F3 EGFR-Del19/T790M = Ba/F3 EGFR-Del19/T790M (Homo sapiens, UniProt P00533, T790M, cells depend on it, form not given); experiment: Ba/F3 viability assay (CellTiter-Glo), DT; assay type: cell-based; settings: anti-proliferation, read-out: BaF3 DT IC50
Excerpt: as §2

Chain of EGFR^L858R/T790M/C^797S (P00533 25-1210 T790M/C797S/L858R): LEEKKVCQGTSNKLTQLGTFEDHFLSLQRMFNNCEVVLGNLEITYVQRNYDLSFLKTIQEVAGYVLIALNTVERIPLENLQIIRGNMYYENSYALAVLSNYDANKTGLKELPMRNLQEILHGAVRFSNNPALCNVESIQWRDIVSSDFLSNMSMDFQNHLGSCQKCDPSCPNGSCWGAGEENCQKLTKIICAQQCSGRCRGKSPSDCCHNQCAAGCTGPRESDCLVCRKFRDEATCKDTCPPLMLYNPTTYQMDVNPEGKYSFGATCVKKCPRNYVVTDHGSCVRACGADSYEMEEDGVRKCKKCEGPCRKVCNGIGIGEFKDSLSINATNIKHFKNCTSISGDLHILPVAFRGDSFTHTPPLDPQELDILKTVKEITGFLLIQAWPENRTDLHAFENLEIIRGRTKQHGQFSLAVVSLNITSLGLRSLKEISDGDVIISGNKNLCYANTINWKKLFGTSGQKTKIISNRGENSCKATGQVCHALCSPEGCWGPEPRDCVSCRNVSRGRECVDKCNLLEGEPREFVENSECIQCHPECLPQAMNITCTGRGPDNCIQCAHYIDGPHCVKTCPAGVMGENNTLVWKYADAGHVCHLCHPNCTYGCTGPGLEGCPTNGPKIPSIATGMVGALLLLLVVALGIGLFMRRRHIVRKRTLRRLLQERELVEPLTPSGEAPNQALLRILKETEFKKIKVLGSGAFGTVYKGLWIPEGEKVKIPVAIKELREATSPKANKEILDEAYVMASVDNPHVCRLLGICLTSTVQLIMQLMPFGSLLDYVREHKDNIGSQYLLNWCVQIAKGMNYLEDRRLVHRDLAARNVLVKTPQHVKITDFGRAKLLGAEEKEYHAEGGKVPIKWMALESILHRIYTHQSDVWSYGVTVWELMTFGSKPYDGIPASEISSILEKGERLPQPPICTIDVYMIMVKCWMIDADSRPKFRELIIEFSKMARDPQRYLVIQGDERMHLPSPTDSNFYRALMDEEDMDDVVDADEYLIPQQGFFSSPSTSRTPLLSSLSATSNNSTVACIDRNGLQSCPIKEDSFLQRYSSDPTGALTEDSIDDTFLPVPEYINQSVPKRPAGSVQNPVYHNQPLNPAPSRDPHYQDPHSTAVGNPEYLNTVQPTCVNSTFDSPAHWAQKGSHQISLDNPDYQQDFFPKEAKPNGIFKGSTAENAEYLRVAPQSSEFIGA
Chain of Ba/F3 EGFR-Del19/T790M/C797S (P00533 with tags, fused parts or gaps DEL746-750/T790M/C797S, form open): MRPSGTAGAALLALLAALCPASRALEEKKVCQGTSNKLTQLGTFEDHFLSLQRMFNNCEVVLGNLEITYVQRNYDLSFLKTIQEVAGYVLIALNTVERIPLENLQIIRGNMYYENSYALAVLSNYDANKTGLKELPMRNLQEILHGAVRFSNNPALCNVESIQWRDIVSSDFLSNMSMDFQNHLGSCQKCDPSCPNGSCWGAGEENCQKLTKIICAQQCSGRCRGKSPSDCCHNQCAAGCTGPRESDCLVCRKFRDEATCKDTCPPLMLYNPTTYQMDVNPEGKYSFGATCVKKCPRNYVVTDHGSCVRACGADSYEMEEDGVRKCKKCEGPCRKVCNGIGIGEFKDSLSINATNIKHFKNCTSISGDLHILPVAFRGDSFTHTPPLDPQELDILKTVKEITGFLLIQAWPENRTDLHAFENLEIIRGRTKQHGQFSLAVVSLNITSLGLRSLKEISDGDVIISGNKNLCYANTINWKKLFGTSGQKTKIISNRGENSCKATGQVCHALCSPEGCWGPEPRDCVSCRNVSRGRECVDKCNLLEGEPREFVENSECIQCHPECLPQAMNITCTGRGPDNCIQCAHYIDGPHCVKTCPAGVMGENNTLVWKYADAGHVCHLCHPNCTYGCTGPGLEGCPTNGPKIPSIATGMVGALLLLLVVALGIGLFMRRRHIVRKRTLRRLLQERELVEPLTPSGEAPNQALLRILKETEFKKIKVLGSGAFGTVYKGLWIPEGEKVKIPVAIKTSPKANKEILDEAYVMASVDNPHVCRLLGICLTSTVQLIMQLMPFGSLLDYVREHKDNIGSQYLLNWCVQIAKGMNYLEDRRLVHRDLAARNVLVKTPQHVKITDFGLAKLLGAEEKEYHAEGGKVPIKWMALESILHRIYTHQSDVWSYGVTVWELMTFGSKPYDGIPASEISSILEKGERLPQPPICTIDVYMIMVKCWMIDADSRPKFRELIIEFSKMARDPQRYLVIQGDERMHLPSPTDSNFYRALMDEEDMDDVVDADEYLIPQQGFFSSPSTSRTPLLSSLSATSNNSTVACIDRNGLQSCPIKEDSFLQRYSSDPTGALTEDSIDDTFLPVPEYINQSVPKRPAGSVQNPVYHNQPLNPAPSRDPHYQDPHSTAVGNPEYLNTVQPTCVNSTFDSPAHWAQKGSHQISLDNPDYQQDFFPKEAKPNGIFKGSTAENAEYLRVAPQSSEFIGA
Chain of EGFR^L58R/T790M (P00533 25-1210 T790M/L858R): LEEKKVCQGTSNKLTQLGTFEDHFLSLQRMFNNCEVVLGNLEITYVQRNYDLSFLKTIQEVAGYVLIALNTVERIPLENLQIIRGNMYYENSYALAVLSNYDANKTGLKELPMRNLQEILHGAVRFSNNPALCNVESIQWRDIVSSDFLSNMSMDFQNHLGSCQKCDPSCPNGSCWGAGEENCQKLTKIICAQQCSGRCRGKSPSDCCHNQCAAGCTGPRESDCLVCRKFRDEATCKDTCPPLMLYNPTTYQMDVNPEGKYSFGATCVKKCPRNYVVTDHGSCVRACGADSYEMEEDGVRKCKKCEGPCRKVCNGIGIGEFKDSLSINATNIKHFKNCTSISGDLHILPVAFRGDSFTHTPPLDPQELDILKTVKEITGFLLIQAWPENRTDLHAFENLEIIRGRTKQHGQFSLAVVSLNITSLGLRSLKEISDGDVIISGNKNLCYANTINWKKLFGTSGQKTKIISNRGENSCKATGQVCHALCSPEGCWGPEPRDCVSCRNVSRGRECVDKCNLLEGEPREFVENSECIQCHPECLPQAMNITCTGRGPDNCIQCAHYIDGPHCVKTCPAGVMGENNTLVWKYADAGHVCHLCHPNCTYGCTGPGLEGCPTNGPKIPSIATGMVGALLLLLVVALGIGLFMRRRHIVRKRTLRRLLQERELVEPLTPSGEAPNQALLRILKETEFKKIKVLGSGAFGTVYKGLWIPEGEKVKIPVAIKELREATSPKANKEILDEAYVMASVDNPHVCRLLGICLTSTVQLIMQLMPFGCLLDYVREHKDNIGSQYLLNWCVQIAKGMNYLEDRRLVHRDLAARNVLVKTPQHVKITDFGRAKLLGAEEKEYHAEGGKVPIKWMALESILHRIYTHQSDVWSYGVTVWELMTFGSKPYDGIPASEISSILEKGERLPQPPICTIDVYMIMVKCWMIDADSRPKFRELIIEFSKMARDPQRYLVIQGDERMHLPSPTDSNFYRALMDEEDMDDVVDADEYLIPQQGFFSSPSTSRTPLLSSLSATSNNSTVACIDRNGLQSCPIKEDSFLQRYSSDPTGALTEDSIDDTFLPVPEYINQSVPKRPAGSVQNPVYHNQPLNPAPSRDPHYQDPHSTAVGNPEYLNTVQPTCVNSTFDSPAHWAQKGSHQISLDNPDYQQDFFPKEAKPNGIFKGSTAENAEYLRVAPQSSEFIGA
Chain of EGFR^L858R (P00533 25-1210 L858R): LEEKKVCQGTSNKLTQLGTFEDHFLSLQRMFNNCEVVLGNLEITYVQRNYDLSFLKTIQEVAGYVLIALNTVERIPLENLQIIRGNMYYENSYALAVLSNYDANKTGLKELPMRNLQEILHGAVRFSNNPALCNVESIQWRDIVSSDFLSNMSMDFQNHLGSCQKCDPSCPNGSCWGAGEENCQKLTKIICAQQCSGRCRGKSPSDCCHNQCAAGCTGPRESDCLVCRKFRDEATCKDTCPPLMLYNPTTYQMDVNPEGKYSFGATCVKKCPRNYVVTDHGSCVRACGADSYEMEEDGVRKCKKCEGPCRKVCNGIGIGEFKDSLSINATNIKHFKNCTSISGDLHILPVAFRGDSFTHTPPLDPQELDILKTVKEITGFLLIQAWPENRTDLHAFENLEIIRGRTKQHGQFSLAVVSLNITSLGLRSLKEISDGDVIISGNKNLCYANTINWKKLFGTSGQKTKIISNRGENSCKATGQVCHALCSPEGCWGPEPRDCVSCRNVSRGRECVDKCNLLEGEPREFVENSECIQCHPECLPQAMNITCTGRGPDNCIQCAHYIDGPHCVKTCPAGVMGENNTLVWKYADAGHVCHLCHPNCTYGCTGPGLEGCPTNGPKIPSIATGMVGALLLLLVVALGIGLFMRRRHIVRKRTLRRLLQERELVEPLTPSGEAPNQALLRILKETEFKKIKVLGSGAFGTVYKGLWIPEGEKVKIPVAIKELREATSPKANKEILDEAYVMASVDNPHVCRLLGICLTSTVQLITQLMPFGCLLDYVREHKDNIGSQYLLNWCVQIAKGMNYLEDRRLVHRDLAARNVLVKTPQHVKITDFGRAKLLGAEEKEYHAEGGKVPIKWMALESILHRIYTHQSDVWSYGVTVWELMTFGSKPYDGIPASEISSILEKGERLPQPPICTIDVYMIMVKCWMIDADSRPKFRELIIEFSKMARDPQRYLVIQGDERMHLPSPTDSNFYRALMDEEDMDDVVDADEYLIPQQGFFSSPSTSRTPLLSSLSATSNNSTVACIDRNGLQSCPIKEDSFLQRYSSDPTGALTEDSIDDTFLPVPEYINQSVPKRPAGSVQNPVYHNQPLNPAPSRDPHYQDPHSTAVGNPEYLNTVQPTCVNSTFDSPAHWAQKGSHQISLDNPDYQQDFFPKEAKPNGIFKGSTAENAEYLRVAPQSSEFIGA

Row | Compound | IC50 (EGFR^L858R/T790M/C^797S) [µM] | IC50 (EGFR^L58R/T790M) [µM] | IC50 (EGFR^L858R) [µM] | GI50 [1] [µM] | IC50 (Ba/F3 Parental) [µM] | GI50 (Ba/F3 EGFR-Del19/C797S) [µM] | GI50 (Ba/F3 EGFR-Del19/T790M) [µM]
1 | Cc1cc(-c2nn3c4cc(ncc24)Nc2ccnc(n2)-c2cnn(C)c2OCC[C@@H]3C)oc1CN(C)C [(168)] | < 0.01 | < 0.01 | < 0.01 | < 0.01 | 0.1 to 1 | < 0.01 | < 0.01
2 | C[C@H]1CCOc2c(cnn2C)-c2nccc(n2)Nc2cc3c(cn2)c(-c2ccc(CN4CCCC4)n2C)nn31 [(140)] | < 0.01 | < 0.01 | < 0.01 | < 0.01 | 0.1 to 1 | < 0.01 | < 0.01
3 | CC1CCOc2c(cnn2C)-c2nccc(n2)Nc2cc3c(cn2)c(-c2cc(CN4CCN(C)CC4)cn2C)nn31 (centres unmarked) [(83)] | < 0.01 | < 0.01 | 0.01 to 0.1 | 0.01 to 0.1 | 0.01 to 0.1 | 0.01 to 0.1 | 0.01 to 0.1
4 | Cn1ncc2c1OCCCn1nc(N3CCC3)c3cnc(cc31)Nc1ccnc-2n1 [(3)] | < 0.01 | < 0.01 | 0.01 to 0.1 | 0.1 to 1 | 0.1 to 1 | 0.1 to 1 | 0.01 to 0.1
5 | C[C@H]1CCOc2c(cnn2C)-c2nccc(n2)Nc2cc3c(cn2)c(-c2cccc(OCCN(C)C)c2)nn31 [(110)] | < 0.01 | < 0.01 | < 0.01 | < 0.01 | 0.1 to 1 | < 0.01 | < 0.01
6 | Cc1nc(-c2nn3c4cc(ncc24)Nc2ccnc(n2)-c2cnn(C)c2OCC[C@@H]3C)sc1CN1CCOCC1 [(174)] | < 0.01 | < 0.01 | < 0.01 | < 0.01 | 0.1 to 1 | < 0.01 | < 0.01
7 | C[C@H]1CCOc2c(cnn2C)-c2nccc(n2)Nc2cc3c(cn2)c(-c2ccc(CN4CC[C@@H](N(C)C)C4)n2C)nn31 [(186)] | < 0.01 | < 0.01 | < 0.01 | < 0.01 | 0.1 to 1 | < 0.01 | < 0.01

Further lines, with some results ahead:

Row | IC50 (EGFR^L858R/T790M/C^797S) [µM] | IC50 (EGFR^L58R/T790M) [µM] | IC50 (EGFR^L858R) [µM] | Compound | GI50 [1] [µM] | IC50 (Ba/F3 Parental) [µM] | GI50 (Ba/F3 EGFR-Del19/C797S) [µM] | GI50 (Ba/F3 EGFR-Del19/T790M) [µM]
8 | < 0.01 | < 0.01 | 0.1 to 1 | CN(C)CC1CCCN1c1nn2c3cc(ncc13)Nc1ccnc(n1)-c1cnn(C)c1OCCC2 (centres unmarked) [(11)] | 0.1 to 1 | 0.1 to 1 | 0.1 to 1 | 0.1 to 1
9 | < 0.01 | < 0.01 | 0.01 to 0.1 | CC1CCCOc2c(cnn2C)-c2nccc(n2)Nc2cc3c(cn2)c(-c2cc(CN4CCN(C)CC4)nn2C)nn31 (centres unmarked) [(84)] | 0.01 to 0.1 | 0.1 to 1 | 0.1 to 1 | 0.01 to 0.1
10 | < 0.01 | < 0.01 | 0.01 to 0.1 | CC1COc2c(cnn2C)-c2nccc(n2)Nc2cc3c(cn2)c(N2CCC2)nn3C1 (centres unmarked) [(6)] | 0.01 to 0.1 | 0.1 to 1 | 0.01 to 0.1 | 0.01 to 0.1
11 | < 0.01 | < 0.01 | 0.01 to 0.1 | CN1CCN(C(=O)C2CCN(c3nn4c5cc(ncc35)Nc3ccnc(n3)-c3cnn(C)c3OCCC4)C2)CC1 (centres unmarked) [(66)] | 0.1 to 1 | ≥ 1 | 0.1 to 1 | 0.1 to 1
12 | < 0.01 | < 0.01 | 0.01 to 0.1 | C[C@H]1CCOc2c(cnn2C)-c2nccc(n2)Nc2cc3c(cn2)c(N2CC[C@H](N(C)CCCF)C2)nn31 [(180)] | < 0.01 | 0.1 to 1 | 0.01 to 0.1 | 0.01 to 0.1
13 | < 0.01 | < 0.01 | < 0.01 | C[C@H]1CCOc2c(cnn2C)-c2nccc(n2)Nc2cc3c(cn2)c(-c2ccc(CN4CCCCC4)n2C)nn31 [(121)] | < 0.01 | 0.1 to 1 | < 0.01 | < 0.01
14 | < 0.01 | < 0.01 | < 0.01 | C[C@H]1CCOc2c(cnn2C)-c2nccc(n2)Nc2cc3c(cn2)c(-c2ccc(CN(C)C)o2)nn31 [(162)] | < 0.01 | 0.1 to 1 | < 0.01 | < 0.01
